System: panel of breast cancer cell lines
Test: Compound A with targeted agents and chemotherapies, 72-hour in vitro proliferation assays
Assay type: cell-based
[1] = BT-20 cell line, compound A × partner, 72-hour proliferation
[2] = CAL-51 cell line, compound A × partner, 72-hour proliferation
[3] = CAL-85-1 cell line, compound A × partner, 72-hour proliferation
[4] = CAL-120 cell line, compound A × partner, 72-hour proliferation
[5] = CAL-148 cell line, compound A × partner, 72-hour proliferation
[6] = CAMA-1 cell line, compound A × partner, 72-hour proliferation
[7] = DU-4475 cell line, compound A × partner, 72-hour proliferation
[8] = EVSA-T cell line, compound A × partner, 72-hour proliferation
[9] = HCC38, compound A × partner, 72-hour proliferation
[10] = HCC70, compound A × partner, 72-hour proliferation
[11] = HCC1143 cell line, compound A × partner, 72-hour proliferation
[12] = HCC1569, compound A × partner, 72-hour proliferation
[13] = HCC1806, compound A × partner, 72-hour proliferation
[14] = HCC1937, compound A × partner, 72-hour proliferation
[15] = HCC1954, compound A × partner, 72-hour proliferation
[16] = HCC2218, compound A × partner, 72-hour proliferation
[17] = HDQ-P1, compound A × partner, 72-hour proliferation
[18] = HMC-1-8, compound A × partner, 72-hour proliferation
[19] = JIMT-1, compound A × partner, 72-hour proliferation

**Q.** What does the source list for CC1(C)CCC(CN2CCN(c3ccc(C(=O)NS(=O)(=O)c4ccc(NCC5CCOCC5)c([N+](=O)[O-])c4)c(Oc4cnc5[nH]ccc5c4)c3)CC2)=C(c2ccc(Cl)cc2)C1 [ABT-199]?
**A.** Best CI (72 h): 1.23; Bliss Volume (72 h): −1.15; HSA volume (72 h): −2.69; Loewe Volume (72 h): −0.11; Synergy Score (72 h): 3.31; Best CI [1]: 0.62; Bliss Volume [1]: 6.83; HSA volume [1]: 5.47; Loewe Volume [1]: 5.94; Synergy Score [1]: 13.39; Best CI [2]: 0.58; Bliss Volume [2]: 0.44; HSA volume [2]: −2.62; Loewe Volume [2]: 0.83; Synergy Score [2]: 0.56; Best CI [3]: 0.83; Bliss Volume [3]: −1.49; HSA volume [3]: −2.11; Loewe Volume [3]: −1.27; Synergy Score [3]: 1.08; Best CI [4]: 0.85; Bliss Volume [4]: 3.85; HSA volume [4]: −1.21; Loewe Volume [4]: −0.16; Synergy Score [4]: 0.62; Best CI [5]: 0.47; Bliss Volume [5]: 3.32; HSA volume [5]: −0.66; Loewe Volume [5]: 3.11; Synergy Score [5]: 2.74; Best CI [6]: 0.38; Bliss Volume [6]: 8.30; HSA volume [6]: 4.83; Loewe Volume [6]: 8.10; Best CI [7]: 1.15; Bliss Volume [7]: 10.43; HSA volume [7]: 8.46; Loewe Volume [7]: 10.37; Synergy Score [7]: 10.64; Best CI [8]: 1.07; Bliss Volume [8]: 1.29; HSA volume [8]: −0.86; Loewe Volume [8]: 0.99; Synergy Score [8]: 4.67; Best CI [9]: 0.77; Bliss Volume [9]: −3.14; HSA volume [9]: −0.71; Loewe Volume [9]: 0.50; Synergy Score [9]: 5.65; Best CI [10]: 0.43; Bliss Volume [10]: 15.68; HSA volume [10]: 14.46; Loewe Volume [10]: 15.44; Synergy Score [10]: 28.95; Best CI [11]: 0.82; Bliss Volume [11]: 2.43; HSA volume [11]: −2.65; Loewe Volume [11]: −1.50; Synergy Score [11]: 3.01; Best CI [12]: 0.51; Bliss Volume [12]: 15.86; HSA volume [12]: 14.50; Loewe Volume [12]: 16.04; Synergy Score [12]: 14.35; Best CI [13]: 0.83; Bliss Volume [13]: 3.80; HSA volume [13]: 4.70; Loewe Volume [13]: 5.23; Synergy Score [13]: 6.31; Best CI [14]: 0.22; Bliss Volume [14]: 8.42; HSA volume [14]: 2.68; Loewe Volume [14]: 4.59; Synergy Score [14]: 1.43; Best CI [15]: 0.60; Bliss Volume [15]: 12.55; HSA volume [15]: 10.72; Loewe Volume [15]: 12.18; Synergy Score [15]: 17.16; Best CI [16]: 0.43; Bliss Volume [16]: 7.82; HSA volume [16]: 8.19; Loewe Volume [16]: 7.59; Synergy Score [16]: 15.06; Best CI [17]: 0.04; Bliss Volume [17]: 1.77; HSA volume [17]: 0.38; Loewe Volume [17]: 1.74; Synergy Score [17]: 0.96; Best CI [18]: 0.90; Bliss Volume [18]: 6.70; HSA volume [18]: 5.15; Loewe Volume [18]: 6.08; Synergy Score [18]: 9.51; Best CI [19]: 0.14; Bliss Volume [19]: −1.41; HSA volume [19]: −2.60; Loewe Volume [19]: −1.93; Synergy Score [19]: 0.53; Synergy Score (MCF7 cells, Compound A × partner agent, 72-hour proliferation): 1.43
